Data from US7351731B2, “Azole derivatives and methods for making the same” (Board of Governors for Higher Education, State of Rhode …, priority 2005, dated 2008).
Values after ≈ are worked out from the molar mass of the structure shown.

Legend:
C. albicans ATCC 14053 [1] = assay: MIC microdilution susceptibility testing, C. albicans in SDB; type: cell-based, Candida albicans; details: 24-48 h, average of three experiments; for MIC C. albicans ATCC 14053, SDB: SDB medium pH 5.6, 35-37° C.; for MIC: Candida albicans, ATCC14053, pH 5.6, SDB medium pH 5.6, 35-37° C.
Protocol: (§1) Microorganisnis. […] Stock cultures were kept on Sabouraud dextrose agar (SDA; Becton-Dickinson and Co., Sparks, Md.). Subcultures were prepared on SDA at 35-37° C. Suspension cultures were prepared by inoculation of single colonies in 7 ml of normal saline solution.
(§2) Test compounds were dissolved in DMSO (0.56 mg/ml) and stored at 0° C. Working dilutions were made in RPMI or SDB medium. […] The final maximum concentration of DMSO in the assays was 5% (v/v).
(§3) Microdilutions for control experiments with C. albicans, A. niger, and C. neoformans were the modified method of National Committee for Clinical Laboratory Standards (NCCLS) method as described by Galgiani and by the more recent NCCLS M27-A microdilution methods as described previously. Galgiani, J. N. Antimicrob. Agents Chemother. […] Reference method for broth dilution antifungal susceptibility testing for yeasts. Approval standard. […] 9; C. arballeira, N. M., et al. Arch. Pharm.-Pharm. […] Dilutions were prepared in 0.1 ml of RPMI or SDB; the inocula were either 10^4 C. albicans or C. neoformans cells or A. niger spores. The tubes were incubated for 24-48 h at 36±1° C., and turbidity was read visually.

C. albicans ATCC 14053 [2] = assay: MIC microdilution susceptibility testing, C. albicans in RPMI; type: cell-based, Candida albicans; details: RPMI medium pH 6.9, 35-37° C., 24-48 h, average of three experiments; for MIC: Candida albicans, ATCC14053, read-out: MIC C. albicans ATCC 14053, RPMI
Protocol: as §1, §2, §3

A. niger ATCC 16404 = assay: MIC microdilution susceptibility testing, A. niger in SDB; type: cell-based, Aspergillus niger; details: SDB medium, 35-37° C., 24-48 h, average of three experiments; for MIC: Aspergillus niger, ATCC16404
Protocol: as §1, §2, §3

C. neoformans ATCC 66031 = assay: MIC microdilution susceptibility testing, C. neoformans in SDB; type: cell-based, Cryptococcus neoformans; details: SDB medium, 35-37° C., 24-48 h, average of three experiments; for MIC: Cryptococcus neoformans, ATCC66031
Protocol: as §1, §2, §3

SMILES | MIC C. albicans ATCC 14053, SDB (C. albicans ATCC 14053 [1]) | MIC C. albicans ATCC 14053, RPMI (C. albicans ATCC 14053 [2]) | MIC A. niger ATCC 16404, SDB (A. niger ATCC 16404) | MIC (C. albicans ATCC 14053 [1]) | MIC (C. albicans ATCC 14053 [2]) | MIC (A. niger ATCC 16404) | MIC (C. neoformans ATCC 66031) | MIC C. neoformans ATCC 66031, SDB (C. neoformans ATCC 66031)
C[C@@H]1[C@H](O)[C@@H](C)/C=C/C=C/C=C/C=C/C=C/C=C/C=C/[C@H](O[C@@H]2O[C@H](C)[C@@H](O)[C@H](N)[C@@H]2O)C[C@@H]2O[C@](O)(C[C@@H](O)C[C@@H](O)[C@H](O)CC[C@@H](O)C[C@@H](O)CC(=O)O[C@H]1C)C[C@H](O)[C@H]2C(=O)O [AMB, amphotericin B, reference compound] | 1.5 µg/mL (≈ 1.62 µM) | 0.7 µg/mL (≈ 0.758 µM) | 0.4 µg/mL (≈ 0.433 µM) |  |  |  |  | 
OC(Cn1cncn1)(Cn1cncn1)c1ccc(F)cc1F [FLC, 1,3-bis(1H-1,2,4-triazol-1-yl)-2-(2,4-difluorophenyl)-propan-2-ol, reference compound] |  |  |  | ≥ 4440 µg/mL | 2.3 µg/mL (≈ 7.51 µM) | > 580 µg/mL | 2.4 µg/mL (≈ 7.84 µM) | 
Cc1ccc(S(=O)(=O)C(Cn2cncn2)(Cn2cncn2)c2ccc(F)cc2F)cc1 [Tosyl] |  |  |  | > 731 µg/mL | 365 µg/mL (≈ 821 µM) | > 731 µg/mL | 46 µg/mL (≈ 103 µM) | 
O=C(OCCCl)OC(Cn1cncn1)(Cn1cncn1)c1ccc(F)cc1F [Compound 1k, O-2-Chloroethyloxycarbonylfluconazole] | >977 µg/mL | 977 µg/mL (≈ 2370 µM) | >977 µg/mL |  |  |  |  | >977 µg/mL
CCCCCCCCCCCCCCO [Tetradecanol, reference compound] |  |  |  | 1720 µg/mL (≈ 8020 µM) |  | 27 µg/mL (≈ 126 µM) | 14 µg/mL (≈ 65.3 µM) | 
CCCCCCCCCCCCCC(=O)O [Tetradecanoic acid, reference compound] |  |  |  | 1750 µg/mL (≈ 7660 µM) | > 876 µg/mL | > 529 µg/mL | > 529 µg/mL | >529 µg/mL
CCCC(Br)C(=O)O (stereo not shown) [2-Bromovaleric acid, reference compound] |  |  |  | 578 µg/mL (≈ 3190 µM) | ≥ 578 µg/mL | ≥ 578 µg/mL | 290 µg/mL (≈ 1600 µM) | 
CCCCCCCCCC(=O)O [Decanoic acid, reference compound] |  |  |  | 99 µg/mL (≈ 575 µM) | 791 µg/mL (≈ 4590 µM) | < 12 µg/mL |  | 
CC(=O)N[C@H]1[C@H](OP(=O)(OCCC#N)OC(Cn2cncn2)(Cn2cncn2)c2ccc(F)cc2F)O[C@H](COC(C)=O)[C@@H](OC(C)=O)[C@@H]1OC(C)=O (stereo partly drawn) [Compound 4b, 2-Cyanoethyl-[1-(2-acetamido-2-deoxy-3,4,6-tri-O-acetyl-β-D-glucopyranosidyl)]fluconazole phosphate] | >3,399 μg/mL |  | 1,699 μg/mL |  |  |  |  | 306 µg/mL
CCCCCCCCCCCCC(Br)C(=O)O (stereo not shown) [2-Bromomyristic acid, reference compound] |  |  |  | > 540 µg/mL | 12 µg/mL (≈ 39.1 µM) | 68 µg/mL (≈ 221 µM) | 15 µg/mL (≈ 48.8 µM) | 
Fc1ccc(C(S)(Cn2cncn2)Cn2cncn2)c(F)c1 [SH] |  |  |  | 1860 µg/mL (≈ 5780 µM) |  | > 3730 µg/mL | 339 µg/mL (≈ 1050 µM) | 
CC(=O)OC(Cn1cncn1)(Cn1cncn1)c1ccc(F)cc1F [Compound 1a, O-Acetylfluconazole] | 1,420 μg/mL | >1,420 μg/mL | ≧1,420 μg/mL |  |  |  |  | >1,420 μg/mL
[N-]=[N+]=NC(Cn1cncn1)(Cn1cncn1)c1ccc(F)cc1F [Compound N3] |  |  |  | > 610 µg/mL | > 610 µg/mL | 610 µg/mL (≈ 1840 µM) | 19 µg/mL (≈ 57.4 µM) | 
O=C(OC(Cn1cncn1)(Cn1cncn1)c1ccc(F)cc1F)c1ccccc1O [Compound 1l, O-Salicylfluconazole] | >1,212 μg/mL | ≧1,212 μg/mL | >1,212 μg/mL |  |  |  |  | >1,212 μg/mL
CC(Br)C(=O)Cl (stereo not shown) [2-Bromopropionyl chloride, reference compound] |  |  |  | 468 µg/mL | 468 µg/mL | 468 µg/mL | 117 µg/mL | 
CCC(Br)C(=O)OC(Cn1cncn1)(Cn1cncn1)c1ccc(F)cc1F (stereo not shown) [Compound 1d, O-2-Bromobutyrylfluconazole] | 636 µg/mL (≈ 1400 µM) | 319 µg/mL (≈ 701 µM) | ≧1,276 μg/mL |  |  |  |  | >1,276 μg/mL
CCCCCCCCCCC(Br)C(=O)OC(Cn1cncn1)(Cn1cncn1)c1ccc(F)cc1F (stereo not shown) [Compound 1h, O-2-Bromolauroylfluconazole] | 1,466 μg/mL | 1,466 μg/mL | ≧1,466 μg/mL |  |  |  |  | 1,466 μg/mL
